Measurements as given in PubChem BioAssay (NCI).
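Dose response: 5 concentrations. Exposure: 48 h. Format: 96-well plates. Endpoint: linear interpolation; highest concentration if not reached. GI50: concentration for 50% inhibition of growth. At the TGI there is no net growth.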

Key:
Experiment in all cases: DTP human tumour cell line panel, 48 h
OVCAR-5 ovarian = test system: OVCAR-5 ovarian
DU-145 prostate = test system: DU-145 prostate
MDA-MB-231 breast = test system: MDA-MB-231 breast
SF-268 CNS = test system: SF-268 CNS
MDA-MB-435 = test system: MDA-MB-435
SR leukemia = test system: SR leukemia
NCI-H23 lung = test system: NCI-H23 lung
UO-31 renal = test system: UO-31 renal
MALME-3M melanoma = test system: MALME-3M melanoma
NCI-H226 lung = test system: NCI-H226 lung

| SMILES | GI50 (OVCAR-5 ovarian) | TGI (OVCAR-5 ovarian) | GI50 (DU-145 prostate) | TGI (DU-145 prostate) | GI50 (MDA-MB-231 breast) | TGI (MDA-MB-231 breast) | GI50 (SF-268 CNS) | TGI (SF-268 CNS) | GI50 (MDA-MB-435) | TGI (MDA-MB-435) | GI50 (SR leukemia) | TGI (SR leukemia) | GI50 (NCI-H23 lung) | TGI (NCI-H23 lung) | GI50 (UO-31 renal) | TGI (UO-31 renal) | GI50 (MALME-3M melanoma) | TGI (MALME-3M melanoma) | GI50 (NCI-H226 lung) | TGI (NCI-H226 lung) |
| --- | --- | --- | --- | --- | --- | --- | --- | --- | --- | --- | --- | --- | --- | --- | --- | --- | --- | --- | --- | --- |
| CCCN(CCC)C(=O)C1=Cc2ccc(-c3ccc(C(=O)N4CCCC4)cc3)cc2N=C(N)C1 | 20.1 µM | 64.9 µM | 20.6 µM | 91.1 µM | 13.2 µM | 77 µM | 15.5 µM | 46 µM | 2.51 µM | 7.58 µM | 4.21 µM | 18.3 µM | 8.92 µM | 38.9 µM | 9.15 µM | 32.8 µM | 8.32 µM | 23 µM | 12.1 µM | 62 µM |
| COc1cc(NS(C)(=O)=O)ccc1Nc1c2ccc(Cl)cc2nc2c(OC)cccc12 | 1.59 µM | 23.3 µM | < 0.0143 µM | 0.505 µM | 3 µM | 15.6 µM | 0.131 µM | 11.5 µM | 0.913 µM | 16 µM | < 0.0109 µM | 10.2 µM | 0.125 µM | 5.36 µM | 0.0466 µM | 0.698 µM | 0.211 µM | 4.69 µM | 0.0806 µM | 0.83 µM |
| O=c1c2cccc(Cl)c2sc2c(NCCCNCCO)nc3ccccc3c12 | 2.8 µM | 10.1 µM | 1.98 µM | 4.85 µM | 1.4 µM | 3.54 µM | 3.66 µM | 16.7 µM | 1.82 µM | 3.55 µM | 1.6 µM | 5.97 µM | 3.62 µM | 16.5 µM | 1.02 µM | 3.95 µM | 1.61 µM | 3.15 µM | 6.24 µM | 23.9 µM |
| c1ccc(Cn2cc3c(c2-c2ccccc2)CCc2cnoc2-3)cc1 | 33 µM | > 100 µM | 20.1 µM | > 100 µM | 5.68 µM | > 100 µM | 8.05 µM | > 100 µM | 1.89 µM | 7.18 µM | 1.96 µM | 9.28 µM | 4.92 µM | 69.2 µM | 7.65 µM | > 100 µM | 3.13 µM | 30.1 µM | 14.7 µM | > 100 µM |
| COc1ccc2c(c1)c(-c1ccc(-c3cn(S(=O)(=O)c4ccccc4)c4ccc(OC)cc34)s1)cn2S(=O)(=O)c1ccccc1 | > 100 µM | > 100 µM | > 100 µM | > 100 µM | > 100 µM | > 100 µM | > 100 µM | > 100 µM | > 100 µM | > 100 µM | > 100 µM | > 100 µM | > 100 µM | > 100 µM | > 100 µM | > 100 µM | > 100 µM | > 100 µM | > 100 µM | > 100 µM |
| CC[C@@H](C(=O)[C@@H](C)[C@@H](O)[C@H](C)[C@@H]1O[C@@H]([C@@H](CC)C(=O)O)CC[C@@H]1C)C1O[C@]2(C=CC(=O)[C@]3(CC[C@@](C)([C@H]4CC[C@](O)(CC)[C@H](C)O4)O3)O2)[C@H](C)C[C@@H]1C (some centres undefined) | 0.734 µM | 21.5 µM | 1.43 µM | 18 µM | 0.854 µM | 6.01 µM | 2.12 µM | 15.7 µM | 1.21 µM | 2.8 µM | 0.0969 µM | – | 0.0979 µM | 8.93 µM | 1.19 µM | 11 µM | 0.163 µM | 0.774 µM | 1.06 µM | 9.77 µM |
| CCN(CC)CCCC(C)Nc1cnc(C(=O)Nc2ccc(Cl)c3cccnc23)cn1 (centres undefined) | 1.83 µM | 3.6 µM | 4.12 µM | 15.8 µM | 1.68 µM | 3.76 µM | 3.23 µM | 15 µM | 1.81 µM | 3.43 µM | 1.18 µM | 4.12 µM | 5.04 µM | 19.6 µM | 1.48 µM | 2.9 µM | 1.82 µM | 3.3 µM | 4.73 µM | 20.7 µM |
| CC1=CC(=NC(=O)CBr)C=C/C1=N\S(=O)(=O)c1ccccc1 | 2.65 µM | 6.86 µM | 3.63 µM | 12.2 µM | 2.48 µM | 6.42 µM | 3.69 µM | 13.7 µM | 3.4 µM | 13.7 µM | 3.41 µM | 18.6 µM | 2.36 µM | 5.99 µM | 2.77 µM | 12.6 µM | 2.06 µM | 5.89 µM | 15.1 µM | 40.2 µM |
| Cc1nn(-c2nc3ccccc3s2)c(C)c1Oc1ccccc1O | 12.5 µM | 25.7 µM | 7.17 µM | 20.1 µM | 10.8 µM | 25.9 µM | 5.31 µM | 20.8 µM | 9.36 µM | 21.3 µM | 0.536 µM | 2.05 µM | 12.3 µM | 26.3 µM | 4.44 µM | 18.6 µM | 12.6 µM | 25.6 µM | 9.07 µM | 26 µM |
